{"source": "ChEMBL document CHEMBL6120938", "about": "“Covalent small-molecule inhibitors of SARS-CoV-2 Mpro: Insights into their design, classification, biological activity, and binding interactions” (Eur J Med Chem, 2024)", "note": "Where a SMILES comes first, the peptide text is derived from it. The star is where a group is joined. Octanoyl = CCCCCCCC(=O)*; Boc = CC(C)(C)OC(=O)*"}
{"tested_on": "SARS-CoV-2", "assay": "Antiviral activity against SARS-CoV-2 Wuhan 5-2N variant infected in African green monkey Vero E6 cells measured for 3 days by WST-8 assay", "assay_type": "functional, organism-based", "conditions": "Severe acute respiratory syndrome coronavirus 2, Wuhan 5-2N, Vero C1008, 72 h", "units": {"EC50": "µM"}}
{"smiles": "CC(C)(C)OC(=O)NCC(=O)N[C@@H](Cc1ccccc1)C(=O)N[C@H](C=O)Cc1c[nH]cn1", "note": "(Boc-Gly-Phe-His-aldehyde)", "EC50": 5}
{"smiles": "CCCCCCCC(=O)NCC(=O)N[C@@H](Cc1ccccc1)C(=O)N[C@H](C=O)Cc1c[nH]cn1", "note": "(Octanoyl-Gly-Phe-His-aldehyde)", "EC50": 5}
{"smiles": "CC(=O)NCC(=O)N[C@@H](Cc1ccccc1)C(=O)N[C@H](C=O)Cc1c[nH]cn1", "note": "(Ac-Gly-Phe-His-aldehyde)", "EC50": 66.1}
